Measurements: patent US20080280937A1, “Ligand Conjugates of Vinca Alkaloids, Analogs, and Derivatives” (priority 2005, published 2008)
“Also recorded” adds a separate entry of the source.

Tests used:
[1] = biological target: T1, folate receptors (FRs) (Homo sapiens, UniProt P15328); experiment: Relative Affinity Assay (displacement of 3H-folic acid on FR-positive KB cells); assay type: binding
T1 construct: FR-positive KB cells were heavily seeded into 24-well cell culture plates; endogenous in cells; host or cells: KB cells
T1 sequence (P15328 25-234): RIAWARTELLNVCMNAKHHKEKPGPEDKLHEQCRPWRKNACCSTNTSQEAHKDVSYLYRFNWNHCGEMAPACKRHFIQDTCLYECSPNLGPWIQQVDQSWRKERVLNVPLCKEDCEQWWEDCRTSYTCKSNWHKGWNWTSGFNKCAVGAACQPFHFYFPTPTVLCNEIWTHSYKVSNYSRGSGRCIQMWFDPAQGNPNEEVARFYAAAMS
Description: Relative Affinity Assay. The affinity of the compounds described herein for folate receptors (FRs) relative to folate was determined according to a previously described method (Westerhof, G. R., J. H. Schornagel, et al. (1995) Mol. Pharm. 48: 459-471) with slight modification. Briefly, FR-positive KB cells were heavily seeded into 24-well cell culture plates and allowed to adhere to the plastic for 18 h. Spent incubation media was replaced in designated wells with folate-free RPMI (FFRPMI) supplemented with 100 nM ^3H-folic acid in the absence and presence of increasing concentrations of test article or folic acid. Cells were incubated for 60 min at 37° C. and then rinsed 3 times with PBS, pH 7.4, followed by the addition of 500 μL of 1% SDS in PBS, pH 7.4. Cell lysates were then collected and added to individual vials containing 5 mL of scintillation cocktail, and then counted for radioactivity. Negative control tubes contained only the ^3H-folic acid in FFRPMI (no competitor). Positive control tubes contained a final concentration of 1 mM folic acid, and CPMs measured in these samples (representing non-specific binding of label) were subtracted from all samples.

[2] = tested on: folate receptor-positive KB cells; assay type: cell-based, human
Description: Inhibition of Cellular DNA Synthesis. The compounds described herein were evaluated using an in vitro cytotoxicity assay that predicts the ability of the drug to inhibit the growth of folate receptor-positive KB cells. The compounds were comprised of folate linked to a respective chemotherapeutic drug, as prepared according to the protocols described herein. The KB cells were exposed for predetermined periods of time at 37° C. to the indicated concentrations of folate-drug conjugate in the absence or presence of at least a 100-fold excess of folic acid. The cells were then rinsed with fresh culture medium and incubated in fresh culture medium for 72 hours at 37° C. Cell viability was assessed using a ^3H-thymidine incorporation assay.

[3] = tested on: M109 tumors; experiment: Inhibition of Tumor Growth in Mice, subcutaneous M109 tumors; assay type: in vivo; conditions: Balb/c mice
Description: Inhibition of Tumor Growth in Mice. The anti-tumor activity of the compounds described herein, when administered intravenously (i.v.) to tumor-bearing animals, was evaluated in Balb/c mice bearing subcutaneous M109 tumors. Approximately 11 days post tumor inoculation in the subcutis of the right axilla with 1×10^6 M109 cells (tumor volume range at t0=between 60 and 80 mm^3), mice (5/group) were injected i.v. three times a week (TIW), for a defined length of time (e.g., 2-3 weeks) with (a) a defined dose level on a per kilogram body weight basis of a drug delivery conjugate described herein, or (b) an equivalent dose volume of PBS (control). Tumor growth was measured using calipers at 2-day or 3-day intervals in each treatment group. Tumor volumes were calculated using the equation V=a×b^2/2, where “a” is the length of the tumor and “b” is the width expressed in millimeters.

[4] = tested on: Folate receptor-negative 4T-1 tumor cells; experiment: 4T-1 Tumor Volume Assay; assay type: in vivo, Balb/c mice; conditions: 3 μmol/kg TIW for 3 weeks
From the text: 4T-1 Tumor Volume Assay. Six to seven week-old mice (female Balb/c strain) were obtained from Harlan, Inc., Indianapolis, Ind. The mice were maintained on Harlan's folate-free chow for a total of three weeks prior to the onset of and during this experiment. Folate receptor-negative 4T-1 tumor cells (1×10^6 cells per animal) were inoculated in the subcutis of the right axilla. Approximately 5 days post tumor inoculation when the 4T-1 tumor average volume was ˜100 mm^3, mice (5/group) were injected i.v. three times a week (TIW), for 3 weeks with 3 μmol/kg of drug delivery conjugate or with an equivalent dose volume of PBS (control). Tumor growth was measured using calipers at 2-day or 3-day intervals in each treatment group. Tumor volumes were calculated using the equation V=a×b^2/2, where “a” is the length of the tumor and “b” is the width expressed in millimeters.

[5] = Animal Weight Determination
Description: Animal Weight Determination. The percentage weight change of the mice was determined in mice (5 mice/group) on the indicated days post-tumor inoculation (PTI) as shown in the graph for the samples described in the related tumor volume assay.

SMILES: CC[C@]1(O)C[C@H]2CN(CCc3c([nH]c4ccccc34)[C@@](C(=O)OC)(c3cc4c(cc3OC)N(C)[C@H]3[C@@](O)(C(=O)NN=CCOCCOCCN5C(=O)CC(SC[C@H](NC(=O)[C@H](CC(=O)O)NC(=O)[C@H](CC(=O)O)NC(=O)[C@H](CCCNC(=N)N)NC(=O)[C@H](CC(=O)O)NC(=O)CC[C@H](NC(=O)c6ccc(NCc7cnc8nc(N)[nH]c(=O)c8n7)cc6)C(=O)O)C(=O)O)C5=O)[C@H](O)[C@]5(CC)C=CCN6CC[C@]43[C@@H]65)C2)C1 (some centres unmarked) [Example 6]
- relative binding affinity versus folic acid at folic acid receptors ([1]; figure legends, folic acid = 1.0, 1 hour at 37° C): 0.35
- Relative Folate Receptor Affinity ([1]; summary table): 0.31
- IC50 ([2]; KB cells, without excess folic acid, read-out: IC50, 3H-thymidine incorporation in KB cells): 14 nM
- Folate Receptor Competition ([2]; summary table): Yes
- competition by excess folic acid of effect on 3H-thymidine incorporation ([2]; with versus without at least 100-fold excess of folic acid): folate competes
- growth of M109 tumors ([3]; 1.5 μmol/kg TIW): inhibits the growth of solid tumors
- growth of M109 tumors ([3]; 3 μmol/kg TIW for 3 weeks): inhibits the growth of solid M109 tumors
- growth of M109 tumors ([3]; 10 μmol/kg TIW for 3 weeks): inhibits the growth of solid tumors
- growth of FR-negative 4T-1 tumors [4]: not folate receptor (FR)-negative tumors; also recorded: absence of activity
- weight of nu/nu mice ([5]; 5 μmol/kg for 3 weeks (FIG. 16B)): absence of an effect
- weight of nu/nu mice ([5]; 10 μmol/kg TIW for 3 weeks (FIG. 5B)): does not affect the weight of the mice; also recorded: absence of an effect
- weight of mice ([5]; 10 μmol/kg TIW for 3 weeks (FIG. 7B)): absence of an effect
- weight of Balb/c mice ([5]; 10 μmol/kg for 3 weeks (FIG. 14B)): absence of an effect
- weight of nu/nu mice ([5]; 1, 5, and 10 μmol/kg TIW for 3 weeks (FIG. 6B)): little effect on the weight of the mice; also recorded: absence of an effect
